Entries after “also recorded” stand apart in the source; their conditions may differ.

Assay [1] deals with murine lung. The assay can be described thus: Alveolar remodeling / emphysema (mean chord length, lung morphometry). Conditions: for tissue / alveolar remodeling: control or CS-exposed animals.
The next assay relates to IFN-γ. The assay can be described thus: BAL IFN-γ ELISA. As to conditions: for IFN-γ level: after second dose. The assay is classed as in vivo, mice. The protocol: (§1) CS exposure was continued during this interval.
(§2) The levels of BAL IL-18 (MBL, Japan), IL-12/IL-23p40 and IFN-γ (R&D Systems) were determined using commercial ELISA kits as per the manufacturer's instructions.
Background: An ELISA detects its analyte on a solid surface through an enzyme-linked reagent.

Assay [2] has as its system murine lung. The experiment in a line: TUNEL evaluation of lung cell apoptosis. It counts as in vivo, mice. The protocol:
End labeling of exposed 3′-OH ends of DNA fragments in paraffin-embedded tissue was undertaken with the TUNEL in situ cell death detection kit AP (Roche Diagnostics) using the instructions provided by the manufacturer. Staining specificity was assessed by comparing the signal that was seen when terminal transferase was included and excluded from the reaction. After staining, a minimum of 20 fields of alveoli were randomly chosen, and 500 nuclei were counted per lung. The labeled cells were expressed as a percentage of total nuclei.
as §1
End labeling of exposed 3′-OH ends of DNA fragments in paraffin embedded tissue was undertaken with the TUNEL in situ cell death detection kit AP (Roche Diagnostics, Indianapolis, Ind.) using the instructions provided by the manufacturer. Staining specificity was assessed by comparing the signal that was seen when terminal transferase was included and excluded from the reaction. After staining, a minimum of 10 fields of alveoli was randomly chosen and 300 nuclei of structural cells were counted per lung. The labeled cells were expressed as a percentage of total nuclei.

For another assay, the system named is IL-18. The assay can be described thus: BAL IL-18 ELISA. The assay is classed as in vivo, mice. As to the method:
Mice were euthanized, the trachea was isolated by blunt dissection, and tubing was secured in the airway. Three volumes of 0.6 ml of PBS were then instilled and gently aspirated and pooled. Each BAL fluid sample was centrifuged, and the supernatants were stored in −70° C. until used. Lung lysates were also prepared. The levels of IL-18 were determined using a commercial ELISA kit (R&D Systems) as per the manufacturer's instructions.
as §1, §2

The test system of a further assay is IL-12/23 p40. The assay can be described thus: BAL IL-12/IL-23p40 ELISA. It counts as in vivo, mice. As to conditions: after second dose. As to the method:
as §1, §2

Assay [3] relates to IL-18, IL-12/23 p40 and Type I and Type II IFNs. The experiment in a line: Production of IL-18, IL-12/23 p40 and Type I and Type II IFNs in BAL (stated jointly). The assay is classed as in vivo, mice. Conditions: versus vehicle controls.
Assay [4] relates to murine lung. The experiment in a line: BAL inflammation (BAL cell recovery) after PAMP administration in mice breathing room air or exposed to cigarette smoke. The assay is classed as in vivo. As to conditions: for BAL inflammation: interaction with cigarette smoke (CS-exposed vs non-CS animals): CS exposure 2 weeks before and during dosing; for number of cells recovered per ml of BAL fluid: control (non-CS) animals, dose series. As to the method:
During the first week they received a half cigarette, twice a day, to allow for acclimation. During the remainder of the exposure they received three cigarettes per day (one cigarette per session/three sessions per day).
as §1
Mice were sacrificed using intraperitoneal ketamine/xylazine injection and the trachea was cannulated and perfused with two 0.9 ml aliquots of cold saline. The cellular contents and BAL fluid were separated by centrifugation and the BAL fluid was stored in aliquots at −80° C.

A further assay concerns PKR. The experiment in a line: Immunoblot of phospho-PKR in whole lung lysates. The assay is classed as in vivo, mice. The protocol:
as §1
Whole lung lysates were prepared and the total protein content of each was measured using the DC protein assay reagents (Bio-Rad Inc.). Equal amounts of sample proteins were fractionated on 4-15% SDS-PAGE gels under reducing conditions and transferred to polyvinylidene difluoride membranes. The membranes were then incubated in blocking buffer (5% w/v nonfat dry milk in TBS/0.05% Tween) for 1 hour at room temperature. The membranes were then incubated with primary antibodies overnight at 4° C., washed three times in TBS/0.05% Tween and incubated for 2 h at room temperature with appropriate secondary antibodies. Immunoreactive signal was detected using a chemiluminescent procedure (ECL Western blotting detection system; Amersham Life Science) according to the manufacturer's instructions.
(Immunoblotting shows a protein as a band on a membrane.)

For `CC(C)Cn1cnc2c(N)nc3ccccc3c21` [IMQ, imiquimod], the “tissue / alveolar remodeling” value in the assay with murine lung [1] was “did not have similar effects”.
In the case of poly(I:C), the “morphometrically determined alveolar chord length” value with murine lung [1] (4 doses in CS-exposed mice) is “significant increases”. For the same compound, the “increase in alveolar size” value in the assay on murine lung [1] (4 doses in RA-exposed mice) is reported as “did not achieve statistical significance”. Besides, the “dose at which CS interaction on alveolar/airway remodeling could be appreciated” value with murine lung [1] (CS-exposed mice) was no less than 15 µg. The mean chord length result is given as “about 70 microns” in the assay on murine lung [1] (IL-18Rα−/− and IFN-γ−/− animals exposed to CS); “about 70 microns” with murine lung [1] (PKR (null) animals exposed to CS); “about 85 microns” with murine lung [1] (PKR+/+ animals exposed to CS); “about 65 microns” with murine lung [1] (PKR+/+ animals, no CS); roughly 62 microns in the assay on murine lung [1] (PKR−/− animals, no CS); “about 90 microns” with murine lung [1] (administered and exposed to CS, controls about 55 microns). Also, the mean chord length entry in the assay with murine lung [1] (wild-type, IL-18Rα−/− and IFN-γ−/− animals, no CS) was “about 60 microns”. Besides, the IFN-γ level result is reported as “about 90 pg/ml” in the assay on IFN-γ (CS animals) and “about 10 pg/ml” in the assay with IFN-γ (control animals). The IFN-γ expression result in the assay with IFN-γ (IL-18Rα−/− animals, CS) was “about 35 pg/ml”; with IFN-γ (wild-type animals, CS), “about 110 pg/ml”; in the assay on IFN-γ (wild-type animals, no CS), “about 35 pg/ml”. The TUNEL score entry was “about 12%” in the assay with murine lung [2] (IL-18Rα+/+, IFN-γ+/+, PKR+/+ animals, CS); “about 8%” in the assay with murine lung [2] (IL-18Rα+/+, IFN-γ+/+, PKR+/+ animals, room air); “about 9%” with murine lung [2] (IL-18Rα−/−, IFN-γ−/− and PKR−/− animals, CS); “about 17” in the assay with murine lung [2] (combined with CS); “about 8” in the assay on murine lung [2] (given alone (no CS)). Besides, in the assay with murine lung [2] (IL-18Rα−/−, IFN-γ−/− and PKR−/− animals, room air), the TUNEL value result is given as “about 6.5%”. Besides, the IL-18 level result was “about 100 pg/ml” in the assay on IL-18 (CS animals, second dose); 90 to 100 pg/mL with IL-18 (both CS and non-CS animals, by week 4); “about 20 pg/ml” in the assay with IL-18 (non-CS animals, second dose). Moreover, the IL-12/23 level entry is “about twice that” in the assay on IL-12/23 p40 (CS animals, relative to non-CS) and “about 3000 pg/ml” in the assay with IL-12/23 p40 (non-CS animals). The “stimulation of IL-18, IL-12/23 p40 and Type I and Type II IFNs” value in assay [3] is recorded as “potent stimulator”. The “BAL inflammation: interaction with cigarette smoke (CS-exposed vs non-CS animals)” value with murine lung [4] is listed as “significantly exacerbated; also recorded: synergistic”. In addition, the “dose giving significant interaction with CS on inflammation” value in the assay on murine lung [4] (CS-exposed mice) is no less than 15 µg. The “number of cells recovered per ml of BAL fluid” value in the assay with murine lung [4] is reported as “dose dependent”. Moreover, the “dose at which enhanced PKR activation was observed” value with PKR (CS-exposed mice) was no less than 15 µg/mL. The phospho-PKR expression entry with PKR (wild-type animals, given alone) is given as “modestly up-regulated”. In the assay with PKR (wild-type animals, with CS exposure), the “phospho-PKR expression / PKR activation” value is reported as “further increase; also recorded: greatly enhanced”.
Turning to lipopoly-saccharide [LPS], in the assay on murine lung [1], the “tissue / alveolar remodeling” value was “no tissue remodeling was observed; also recorded: did not have similar effects”. Also, in the assay with murine lung [4], the “BAL inflammation: interaction with cigarette smoke (CS-exposed vs non-CS animals)” value is on record as “not a significant difference” and the “number of cells recovered per ml of BAL fluid” value is on record as “dose dependent”.
Consider `CCNCc1nc2c(N)nc3ccccc3c2n1CC(C)(C)O` [GDQ, gardiquimod], for which, in the assay on murine lung [1], the “tissue / alveolar remodeling” value was “no effect; also recorded: did not have similar effects”. Further, the “BAL inflammation: interaction with cigarette smoke (CS-exposed vs non-CS animals)” value in the assay on murine lung [4] is reported as “not significantl”. Also, in the assay with murine lung [4] (control animals, 5 μg doses), the BAL inflammation result is “no effect”.

Source of the values: patent US20100247538A1, “IL-18 and Protein Kinase R Inhibition for the Treatment of COPD” (Yale University, priority 2007, published 2010).
